*1 amine or outer side, *2 acyl side, *3 side chain or, on linkers, in order; H or OH if unused. Where a SMILES comes first, the peptide text is derived from it. [ ]: non-standard residue; d: D form. The star is where a group is joined. Gly(1-adamantyl) = N[C@H](C(=O)O)C12CC3CC(CC(C3)C1)C2; Asp(3,3-(CH2)4) = N[C@H](C(=O)O)C1(C(=O)O)CCCC1; tBuAla = CC(C)(C)C[C@H](N)C(=O)O; Tle = CC(C)(C)[C@H](N)C(=O)O; NH(3-pentyl) = CCC(CC)N*; Pyrrolidide = C1CCN(*)C1; X2 = CC(C)(C)CC(C)(C)N*; CO = O=C([*:1])[*:2]; X1 = CCCC1(N*)CCCC1; X4 = CCCC(CCC)N*

The subject of the first test is Herpes Simplex Virus (HSV-2). It is filed as cell-based. The note with it: 29 h. As for the experimental part:
BHK-21/C13 cells (ATCC CCL 10) are incubated for two days in 150 cm^2 T-flasks (1.5 x 10^6 cells/flask) with alpha-MEM medium (Gibco Canada Inc., Burlington, Ontario, Canada) supplemented with 8% (v/v) fetal bovine serum (FBS, Gibco Canada Inc.). The cells are trypsinized and then transferred to fresh media in a 24 well plate to give 2.5 x 10^5 cells in 750 µL of media per well. The cells are incubated at 37° for a period of 6 h to allow them to adhere to the plate. Thereafter, the cells are washed once with 500 µL of alpha-MEM supplemented with 0.5% (v/v) FBS and then incubated with 750 µL of the same media (low serum) for 3 days. After this period of serum starvation, the low serum medium is removed and the cells are incubated in 500 µL of BBMT for 2 to 3 hours. {BBMT medium is described by P. Brazeau et al., Proc. Natl. Acad. Sci. USA, 79, 7909 (1982).} Thereafter, the cells are infected with HSV-2 (multiplicity of infection = 0.02 PFU/cell) in 100 µL of BBMT medium. (Note: The HSV-2 used was strain HG-52, see Y. Langelier and G. Buttin, J. Gen. Virol., 57, 21 (1981); the virus was stored at -80°.) Following 1 h of virus adsorption at 37°, the media is removed and the cells are washed with BBMT (3 X 250 µL). The cells in each well are incubated with or without (control) appropriate concentrations of the test agent dissolved in 200 µL of BBMT medium. After 29 h of incubation at 37°, the infected cells are harvested by first freezing the plate at -80°, followed by thawing. The cells in each well are scraped off the surface of the well with the help of the melting ice fragments. After complete thawing, the cell suspensions are collected and each well is rinsed with 150 µL of BBMT medium. The viral sample (suspension plus washing) is sonicated gently for 4 min at 4°. Cell debris are removed by centrifugation (1000 times gravity for 10 minutes at 4°). The supernatant is collected and stored at -80° until determination of viral titer.
Viral titration was performed by a modification of the colorimetric assay method of M. Langlois et al., Journal of Biological Standardization, 14, 201 (1986).
More specifically, in a similar manner as described above, BHK-21/C13 cells are trypsinized and transferred to fresh media in a 96 well microtiter plate to give 20,000 cells in 100 µL of media per well. The cells in the prepared plate are incubated at 37° for, 2 h. During that time, the viral sample is thawed and sonicated gently for 15 seconds, and log dilutions of the sample are prepared (1/5 sequential: 50 µL of the sample plus 200 µL of BBMT medium, sequential dilutions being done with a multichannel pipette.
On completion of the above 2 hour incubation of the BHK-21/C13 cells, the media is replaced with alpha-MEM medium supplemented with 3% (v/v) FBS. The cells are now ready to be infected with the various sample dilutions of virus. Aliquots (50 µL) of the various dilutions are transferred into the appropriate wells of the plate. The resulting infected cells are incubated for 2 days at 37°. Then 50 µL of a 0.15% (v/v) solution of neutral red dye in Hank's Balanced Salt Solution (pH 7.3, Gibco Canada Inc.) is added to each well. The prepared plate is incubated for 45 min at 37°. Medium from each well is then aspirated and the cells are washed once with 200 µL of Hank's Balanced Salt Solution. After the wash, the dye is released from the cells by the addition of 100 µL of a 1:1 mixture of 0.1 M Sorensen's citrate buffer (pH 4.2) and ethanol. {Sorensen's citrate buffer is prepared as follows: Firstly, a 0.1 M disodium citrate solution is prepared by dissolving citric acid monohydrate (21 g) in 1 N aqueous NaOH (200 mL) and adding sufficient filtered H2O to make 1 L. Secondly, the 0.1 M disodium citrate solution (61.2 mL) is mixed with 0.1 N aqueous HCl (38.8 mL) and the pH of the resulting solution is adjusted to 4.2 if necessary.} The mixture in the wells is subjected to a gentle vortex action to ensure proper mixing.
For `CCCC1(NC(=O)N[C@H](C(=O)N[C@@H](CC(=O)N2CCCC2)C(=O)N[C@H](C(=O)N[C@@H](CC(C)(C)C)C(=O)OCC)C2(C(=O)O)CCCC2)C(C)(C)C)CCCC1` [(1-propylcyclopentyl)-NHC(O)-Tbg-Asp(pyrrolidino)-Asp(cyPn)-γMeLeu-OEt] ({X1-CO}-[Tle]D(Pyrrolidide)[Asp(3,3-(CH2)4)][tBuAla]-OEt), the EC50 (commonly the midpoint of the concentration-response curve) is 45 µM.

`CCCC1(NC(=O)N[C@H](C(=O)N[C@@H](CC(=O)N2CCCC2)C(=O)N[C@H](C(=O)N[C@@H](CC(C)(C)C)C(=O)O)C2(C(=O)O)CCCC2)C(C)(C)C)CCCC1` [(1-propylcyclopentyl)NHCO-Tbg-Asp-(pyrrolidino)-Asp(cyPn)-γMeLeu-OH] ({X1-CO}-[Tle]D(Pyrrolidide)[Asp(3,3-(CH2)4)][tBuAla]-OH) registered an EC50 of 190 µM.

Consider `CCC(CC)NC(=O)N[C@H](C(=O)N[C@@H](CC(=O)N1CCCC1)C(=O)N[C@H](C(=O)N[C@@H](CC(C)(C)C)C(=O)O)C1(C(=O)O)CCCC1)C12CC3CC(CC(C3)C1)C2` [Et2CHNHC(O)-NH-(S)-CH(adamantyl)-C(O)-Asp(pyrrolidino)-Asp(cyPn)-γMeLeu-OH] ({NH(3-pentyl)-CO}-[Gly(1-adamantyl)]D(Pyrrolidide)[Asp(3,3-(CH2)4)][tBuAla]-OH), for which the EC50 stood at 170 µM.

`CCC(CC)NC(=O)N[C@H](C(=O)N[C@@H](CC(=O)N1CCCC1)C(=O)N[C@H](C(=O)N[C@H](CO)CC(C)(C)C)C1(C(=O)O)CCCC1)C12CC3CC(CC(C3)C1)C2` [Et2CHNHC(O)-NH-(S)-CH(adamantyl)-C(O)-Asp(pyrrolidino)-Asp(cyPn)-γMeLeucinol] registered an EC50 of 170 µM.

Consider `CCC(CC)NC(=O)N[C@H](C(=O)N[C@@H](CC(=O)N1CCCC1)C(=O)N[C@H](C(=O)NCCC(C)(C)C)C1(C(=O)O)CCCC1)C(C)(C)C` [Et2CHNHC(O)-Tbg-Asp(pyrrolidino)-Asp(cyPn)-NHCH2CH2CMe3], for which the EC50 was found to be 350 µM.

As for `CCC(CC)NC(=O)N[C@H](C(=O)N[C@@H](CC(=O)N1CCCC1)C(=O)N[C@H](C(=O)NCC(C)(C)C)C1(C(=O)O)CCCC1)C(C)(C)C` [Et2CHNHC(O)-Tbg-Asp(pyrrolidino)-Asp(cyPn)-NHCH2CMe3], a half-maximal effect (EC50) was put at 270 µM.

Consider `CCC(CC)NC(=O)N[C@H](C(=O)N[C@@H](CC(=O)N1CCCC1)C(=O)N[C@H](C(=O)N[C@@H](CC(C)(C)C)C(=O)O)C1(C(=O)O)CCCC1)C(C)(C)C` [Et2CHNHC(O)-Tbg-Asp(pyrrolidino)-Asp(cyPn)-γMeLeu-OH] ({NH(3-pentyl)-CO}-[Tle]D(Pyrrolidide)[Asp(3,3-(CH2)4)][tBuAla]-OH), for which it took 180 µM to reach a half-maximal effect (EC50).

As to `CCC(CC)NC(=O)N[C@H](C(=O)N[C@@H](CC(=O)N1CCCC1)C(=O)N[C@H](C(=O)N[C@@H](CC(C)C)C(=O)O)[C@H](C(=O)O)C(C)C)C(C)(C)C` [Et2CHNHC(O)-Tbg-Asp(pyrrolidino)-Asp{(R)-iPr}-Leu-OH], the EC50 is 300 µM.

As to `CCC(CC)NC(=O)N[C@H](C(=O)N[C@@H](CC(=O)N1CCCC1)C(=O)N[C@H](C(=O)N[C@@H](CC(C)(C)C)C(=O)O)[C@H](C(=O)O)C(C)C)C(C)(C)C` [Et2CHNHC(O)-Tbg-Asp(pyrrolidino)-Asp{(R)-iPr}-γMeLeu-OH], the EC50 came to 190 µM.

`CCC(CC)NC(=O)N[C@H](C(=O)N[C@@H](CC(=O)N1CCCC1)C(=O)N[C@H](C(=O)N[C@H](CO)CC(C)(C)C)[C@H](C(=O)O)C(C)C)C(C)(C)C` [Et2CHNHC(O)-Tbg-Asp(pyrrolidino)-Asp{(R)-iPr}-γMeLeucinol] yielded an EC50 of 140 µM.

For the molecule `CCC(CC)NC(=O)N[C@H](C(=O)N[C@@H](CC(=O)N1CCCC1)C(=O)N[C@H](C(=O)N[C@H](CO)CC(C)(C)C)C1(C(=O)O)CCCC1)C(C)(C)C` [Et2CHNHCO-Tbg-Asp(pyrrolidino)-Asp(cyPn)-γMeLeucinol], the response was half-maximal at 170 µM (EC50).

The molecule `CCCC(CC)(CCC)NC(=O)N[C@H](C(=O)N[C@@H](CC(=O)N1CCCC1)C(=O)N[C@H](C(=O)N[C@H](CC)C(C)(C)C)C1(C(=O)O)CCCC1)C(C)(C)C` [EtPr2CNHC(O)-Tbg-Asp(pyrrolidino)-Asp(cyPn)NH-(R)-CH(Et)CMe3] came in with an EC50 of 7 µM.

Regarding `CC(C)NC(=O)N[C@H](C(=O)N[C@@H](CC(=O)N1CCCC1)C(=O)N[C@H](C(=O)N[C@H](CO)CC(C)(C)C)C1(C(=O)O)CCCC1)C(C)(C)C` [Me2CHNHC(O)-Tbg-Asp(pyrrolidino)-Asp(cyPn)-γMeLeucinol], the midpoint of the response, the EC50, lay at 700 µM.

As for `CCCC(C)(CCC)NC(=O)N[C@H](C(=O)N[C@@H](CC(=O)N1CCCC1)C(=O)N[C@H](C(=O)NCC(C)(C)C)C1(C(=O)O)CCCC1)C(C)(C)C` [MePr2CNHC(O)-Tbg-Asp(pyrrolidino)-Asp(cyPn)-NHCH2CMe3], the response was half-maximal at 84 µM (EC50).

Turning to `CCCC(CCC)NC(=O)N[C@H](C(=O)N[C@@H](CC(=O)N1CCCC1)C(=O)N[C@H](C(=O)N[C@H](CO)CC(C)(C)C)C1(C(=O)O)CCCC1)C(C)(C)C(=O)O` [Pr2CHNHC(O)-Asp(diMe)-Asp(pyrrolidino)-Asp(cyPn)-γMeLeucinol], the EC50 was 170 µM.

Molecule `CCCC(CCC)NC(=O)N[C@H](C(=O)N[C@@H](CC(=O)N1CCCC1)C(=O)N[C@H](C(=O)N[C@H](CO)CC(C)(C)C)C1(C(=O)O)CCCC1)C(C)(C)S` [Pr2CHNHC(O)-NH-(R)-CH{C(CH3)2SH}CO-Asp(pyrrolidino)-Asp(cyPn)-γMeLeucinol] displayed an EC50 of 290 µM.

Take `CCCC(CCC)NC(=O)N[C@H](C(=O)N[C@@H](CC(=O)N1CCCC1)C(=O)N[C@H](C(=O)N[C@H](CO)CC(C)(C)C)C1(C(=O)O)CCCC1)C(C)(C)O` [Pr2CHNHC(O)-NH-(S)-CH{C(CH3)2OH}-C(O)-Asp(pyrrolidino)-Asp(cyPn) γMeLeucinol]: the EC50 came to 210 µM.

As to `CCCC(CCC)NC(=O)N[C@H](C(=O)N[C@@H](CC(=O)N1CCCC1)C(=O)N[C@H](C(=O)NCC(C)(C)CC)C1(C(=O)O)CCCC1)C(C)(C)C` [Pr2CHNHC(O)-Tbg-Asp(pyrrolidino)-Asp(cyPn)-NHCH2CMe2Et], the EC50 stood at 106 µM.

`CCCC(CCC)NC(=O)N[C@H](C(=O)N[C@@H](CC(=O)N1CCCC1)C(=O)N[C@H](C(=O)NCC(C)(C)C)C1(C(=O)O)CCCC1)C(C)(C)C` [Pr2CHNHC(O)-Tbg-Asp(pyrrolidino)-Asp(cyPn)-NHCH2CMe3] displayed an EC50 of 150 µM.

Take `CCCC(CCC)NC(=O)N[C@H](C(=O)N[C@@H](CC(=O)N1CCCC1)C(=O)N[C@H](C(=O)N[C@H](C)C(C)(C)C)C1(C(=O)O)CCCC1)C(C)(C)C` [Pr2CHNHC(O)-Tbg-Asp(pyrrolidino)-Asp(cyPn)-NHCH-(R)-CH(Me)CMe3]: the midpoint of the response, the EC50, lay at 55 µM.

Consider `CCCC(CCC)NC(=O)N[C@H](C(=O)N[C@@H](CC(=O)N1CCCC1)C(=O)N[C@H](C(=O)N[C@@H](CC(C)(C)C)C(=O)O)C1(C(=O)O)CCCC1)C(C)(C)C` [Pr2CHNHC(O)-Tbg-Asp(pyrrolidino)-Asp(cyPn)-γMeLeu-OH] ({X4-CO}-[Tle]D(Pyrrolidide)[Asp(3,3-(CH2)4)][tBuAla]-OH), for which the EC50 amounted to 80 µM.

Still in this test, the particulars now being: concentration effecting 50% inhibition of virus replication; BHK-21/C13 cells infected with HSV-2 strain HG-52 (0.02 PFU/cell), 29 h incubation, colorimetric (neutral red) viral titration; read-out: EC50.
`CC(C)(C)C[C@H](NC(=O)[C@@H](NC(=O)[C@H](CC(=O)N1CCCC1)NC(=O)[C@@H](NC(=O)NC(C)(C)CC(C)(C)C)C(C)(C)C)C1(C(=O)O)CCCC1)C(=O)O` [Me3CCH2CMe2NHC(O)-Tbg-Asp(pyrrolidino)-Asp(cyPn)-γMeLeu-OH] ({X2-CO}-[Tle]D(Pyrrolidide)[Asp(3,3-(CH2)4)][tBuAla]-OH): the EC50 was 110 µM.

For the origin of these results see patent publication EP0560274B1, “Antiherpes peptide derivatives having a ureido N-terminus” (priority 1992, dated 1993).
